# Reference: patent US6534650B2, “Benzisoxazole and 4-amidino-3-hydroxyphenyl chemical intermediates” (Eli Lilly and Company, priority 1996, dated 2003)
# Structures can show the parent of a compound that is named as a salt. Where two headings read alike, the source gives them in different places.
# Legend:
# [1] = target: human thrombin (Homo sapiens, UniProt P00734); assay: Inhibition of the amidase activity of thrombin (chromogenic substrate), Kass; format: biochemical; conditions: purified human thrombin, N-benzoyl-L-Phe-L-Val-L-Arg-p-nitroanilide substrate, pH 7.4; mean over a range of concentrations
# Experimental: The assay is carried out by mixing 50 μl buffer (0.03M Tris, 0.15M NaCl, pH 7.4) with 25 μl of human thrombin solution (purified human thrombin, Enzyme Research Laboratories, South Bend, Ind., at 8 NIH units/ml) and 25 μl of test compound in a solvent (50% aqueous methanol (v:v)). Then 150 μl of an aqueous solution of the chromogenic substate (at 0.25 mg/ml) are added and the rates of hydrolysis of the substrate are measured by monitoring the reactions at 405 nm for the release of p-nitroaniline. Standard curves are constructed by plotting free thrombin concentration against hydrolysis rate. The hydrolysis rates observed with test compounds are then converted to “free thrombin” values in the respective assays by use of the standard curves. The bound thrombin (bound to test compound) is calculated by subtracting the amount of free thrombin observed in each assay from the known initial amount of thrombin used in the assay. The amount of free inhibitor in each assay is calculated by subtracting the number of moles of bound thrombin from the number of moles of added inhibitor (test compound).
# The Kass value is the hypothetical equilibrium constant for the reaction between thrombin and the test compound (I). [formula]
# Kass is calculated for a range of concentrations of test compounds and the mean value reported in units of liter per mole. […] For example, each of the particularly preferred examples of the invention listed above was determined to have a Kass of at least 100×10^6 L/mole.
# [2] = system: thrombin time (TT) in test plasma; assay: Anticoagulation determination: thrombin time (TT) in plasma; format: biochemical; conditions: compound added to plasma; linear extrapolation to doubling of the clotting time
# Experimental: Dog plasma and rat plasma are obtained from conscious mixed-breed hounds (either sex, hazelton-LRE, Kalamazoo, Mich., U.S.A.) or from anesthetized male Sprague-Dawley rats (Harlan Sprague-Dawley, Inc., Indianapolis, Ind., U.S.A.) by venipuncture into 3.8 percent citrate. Fibrinogen is prepared from in-date ACD human blood as the fraction I-2 according to previous procedures and specifications. Smith, Biochem. J., 185, 1-11 (1980); and Smith, et al., Biochemistry, 11, 2958-2967 (1972). Human fibrinogen is also purchased as 98 percent pure/plasmin free from American Diagnostica, Greenwich, Conn. Coagulation reagents ACTIN, Thromboplastin, and Human plasma are from Baxter Healthcare Corp., Dade Division, Miami, Fla. Bovine thrombin from Parke-Davis (Detroit, Mich.) is used for coagulation assays in plasma.
# Coagulation assay procedures are as previously described. Smith, et al., Thrombosis Research, 50, 163-174 (1988). A CoAScreener coagulation instrument (American LABor, Inc.) is used for all coagulation assay measurements. The thrombin time (TT) is measured by adding 0.05 ml saline and 0.05 ml thrombin (10 NIH units/ml) to 0.05 ml test plasma. The activated partial thromboplastin time (APTT) is measured by incubation of 0.05 ml test plasma with 0.05 ml Actin reagent for 120 seconds followed by 0.05 ml CaCl2 (0.02M). The prothrombin time (PT) is measured by adding 0.05 ml saline and 0.05 ml Thromboplastin-C reagent to 0.05 ml test plasma. The compounds of formula I are added to human or animal plasma over a wide range of concentrations to determine prolongation effects on the TT, APTT and PT assays. Linear extrapolations are performed to estimate the concentrations required to double the clotting time for each assay. Each of the particularly preferred examples of the invention listed above was determined to have a TT value of less than 50 ng/mL. For example, the respective values (in ng/mL) for TT were 6, 6 and 23 for the compounds of Examples 1, 3 and 5.
# [3] = Octanol/water distribution coefficient logD at pH 7.4; format: physicochemical
Kass (hypothetical equilibrium constant for the reaction between thrombin and the test compound) [1],logD [3],ΔlogD(7.4) [3] [log units],SMILES,TT (concentration required to double the thrombin clotting time) [2] [ng/mL],ΔlogD(7.4) ([3]; change versus the corresponding amidino-phenyl compound) [log units],"logD ([3]; octanol/water distribution coefficient, read-out: logD(7.4))"
1e+08 L/mol,1.91,5.80,"CCS(=O)(=O)N[C@H](CC1CCCCC1)C(=O)N1CCC[C@H]1C(=O)NCc1ccc(C(=N)N)c(O)c1 [Example 5, N-ethylsulfonyl-D-cyclohexylalanyl-N-[[4-(aminoiminomethyl)-3-hydroxyphenyl]methyl]-L-prolinamide hydrochloride]",23,–,–
7.7e+08 L/mol,–,–,"N=C(N)c1ccc(CNC(=O)[C@@H]2CCCN2C(=O)[C@H](N)CC2CCCCC2)cc1O [Example 1, D-cyclohexylalanyl-N-[[4-(aminoiminomethyl)-3-hydroxyphenyl]methyl]-L-prolinamide dihydrochloride]",6,–,–

SMILES,Kass (hypothetical equilibrium constant for the reaction between thrombin and the test compound) [1],logD [3],ΔlogD(7.4) [3] [log units],TT (concentration required to double the thrombin clotting time) [2] [ng/mL],ΔlogD(7.4) ([3]; change versus the corresponding amidino-phenyl compound) [log units],"logD ([3]; octanol/water distribution coefficient, read-out: logD(7.4))"
"N=C(N)c1ccc(CNC(=O)[C@@H]2CCCN2C(=O)[C@@H](CC2CCCCC2)NCC(=O)O)cc1O [Example 3, N-carboxymethyl-D-cyclohexylalanyl-N-[[4-(aminoiminomethyl)-3-hydroxyphenyl]methyl]-L-prolinamide hydrochloride]","1,200×10^6 L/mole",–,–,6,1.13,0.55
